“Also recorded” adds a separate entry of the source.
Assays:
[1] = target: T1, plasma membrane targeted VDAC1 (plVDAC1) (Mus musculus, UniProt Q60932); experiment: ATP release and ATP content of INS-1 cells transfected with plasma membrane targeted VDAC1; format: cell-based; conditions: plVDAC1-transfected INS-1 cells, 1 h at 1 mM glucose; for ATP release (loss of cellular ATP): VDAC1-ab 10 nM, metformin, AKOS, VBIT-4 20 μM each (FIG. 4c)
T1 construct: expressed in transfected cells; host or cells: INS-1 832/13 cells (rat insulinoma), transient transfection; plasmid a gift from Dr. R. Buettner
Procedure: (§1) ATP release from isolated mouse or human islets or from INS-1 cells after transfection with mitochondrial targeted VDAC1 (mtVDAC1) or plasma membrane targeted VDAC1 (plVDAC1) plasmids was determined using a luminometric assay kit according to manufacturer's recommendation (Biovision). After incubation of islets (50/vial) or INS-1 cells for 60 min, an aliquot of the media was removed for subsequent measurements of released ATP. Then the islets or INS-1 cells were washed 3 times and the lysates were used for measurements of ATP and protein contents followed the protocol provided by the vendor.
INS-1 cells were transiently transfected with a plasmid encoding plasma membrane targeted VDAC1 (pVDAC1) as described in the Material and Method section herein above and in Example 3 (see also Buettner et al 2000. PNAS 97:3201-3206). After transfection (24-32 h and 2-4 h recovery in normal culture medium, RPMI 1640 with complete supplement) the INS-1 cells were washed followed by preincubation in SAB-buffer (See Material and Method above) containing 2.8 mM glucose. The final 1 h incubation was performed in SAB-buffer containing 1 mM glucose and the VDAC1 inhibitory compounds to be tested. At the end, the cells were lysed using lysis buffer, sonicated and the lysate as well as the incubation medium were analyzed for ATP content using a commercially available kit (Biovision, K354-100). Cellular protein content was analyzed by Pierce™ BCA protein assay kit (Thermo Scientific, USA).

[2] = system: islets of C57/BL mice; experiment: ATP content and GSIS in islets of control C57/BL mice; format: cell-based, mouse; conditions: VDAC1 antibody 10 nM; for GSIS: others 20 μM (FIG. 7e); for ATP content: others 20 μM (FIG. 7d)
Procedure: 5 weeks old db/db mice and control (C57/bl) (Janvier Laboratory, France), weighing 18-25 g, were used throughout the experiments. They were given a standard pellet diet (B&K) and tap water ad libitum. The experimental procedures were approved by the Ethics Committee for Animal Research at Lund University. Isolation of pancreatic islets was performed by retrograde injection of a collagenase solution via the bile-pancreatic duct and islets were then collected under a stereomicroscope at room temperature.
(§2) Human pancreatic islets were collected under a stereomicroscope at room temperature and cultured at 5.5 or 20 mM glucose in the absence or presence of test agents for 72 h. Thereafter the islets were washed and preincubated for 30 min at 37° C. in Krebs Ringer bicarbonate buffer, pH 7.4, supplemented with N-2 hydroxyethylpiperazine-N′-2-ethanesulfonic acid (10 mM), 0.1% bovine serum albumin, and 1 mM glucose. Each incubation vial contained 12 islets in 1.0 ml KRB buffer solution and treated with 95% O2 and 5% CO2 to obtain constant pH and oxygenation. After preincubation, the buffer was changed to a medium containing either 1 mM or 16.7 mM glucose. The islets were then incubated for 1 h at 37° C. in a metabolic shaker (30 cycles per min). Immediately after incubation an aliquot of the medium was removed for analysis of insulin and the islets were incubated in acid-ethanol for insulin content determination by radioimmunoassay.
as §1

[3] = system: islets from T2D donors; experiment: ATP content and GSIS in islets from T2D donors, acute addition of VDAC1 inhibitors; format: cell-based, human; conditions: for GSIS: T2D islets, acute addition 1 h (FIG. 6f); for islet ATP content: islets from 5 T2D donors and one IGT donor, 1 h, at 1 and 16.7 mM glucose (FIG. 6e)
Excerpt: Human pancreatic islets were obtained through collaboration between Human Tissue Laboratory within Lund University Diabetes Centre (LUDC) and the Nordic Network for Clinical Islet Transplantation (Prof. Olle Korsgren, Uppsala University, Sweden). Donors were grouped according to HbA1c i.e. less than 6% (ND), between 6% and 6.5% (IGT), higher than 6.5% or history of diabetes (T2D). The human islets (70-90% purity) had been cultured in CMRL 1066 (ICN Biomedicals, Costa Mesa, Calif.) supplemented with 10 mM HEPES, 2 mM L-glutamine, […] gentamicin, […] fungizone (Gibco, BRL, Gaithersburg, Md.), 20 μg/ml ciprofloxacin (Bayer Healthcare, Leverkusen, Germany) and 10 mM nicotinamide at 37° C. (5% CO2) for 1 to 5 days prior to the arrival in the laboratory. The islets were then hand-picked under stereomicroscope prior to use. All procedures using human islets were approved by the ethical committees at Uppsala and Lund Universities, Sweden.
as §2, §1

T1 sequence (Q60932 whole entry): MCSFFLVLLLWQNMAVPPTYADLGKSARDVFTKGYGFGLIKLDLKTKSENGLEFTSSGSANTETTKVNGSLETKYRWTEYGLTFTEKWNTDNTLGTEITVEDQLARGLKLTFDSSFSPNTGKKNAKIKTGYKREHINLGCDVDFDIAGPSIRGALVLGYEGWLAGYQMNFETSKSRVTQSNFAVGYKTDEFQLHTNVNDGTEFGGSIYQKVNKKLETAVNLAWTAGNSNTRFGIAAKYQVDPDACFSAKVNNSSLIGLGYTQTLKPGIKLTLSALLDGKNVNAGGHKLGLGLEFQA

O=C(CC(CO)N1CCN(c2ccc(OC(F)(F)F)cc2)CC1)Nc1ccc(Cl)cc1 (racemic) [VBIT-4, N-(4-chlorophenyl)-4-hydroxy-3-(4-(4-(trifluoromethoxy)phenyl)-piperazin-1-yl)butanamide]
ATP release ([1]; racemate and enantiomers (FIG. 9a), listed as racemic VBIT-4): efficiently inhibit ATP release; also recorded: no discernible difference
cellular ATP content ([1]; racemate and enantiomers (FIG. 9b), listed as racemic VBIT-4): increase cellular ATP content; also recorded: intermediate between that of its enantiomers 1 and 2
ATP release (loss of cellular ATP) [1]: prevented; also recorded: rapidly inhibited
GSIS [2]: do not affect
ATP content [2]: do not affect
GSIS [3]: increased in parallel with the improved ATP generation
islet ATP content [3]: increased islet ATP content

CN(C)C(=N)N=C(N)N [metformin]
ATP release (loss of cellular ATP) [1]: prevented; also recorded: rapidly inhibited
GSIS [2]: do not affect
ATP content [2]: do not affect
GSIS [3]: increased in parallel with the improved ATP generation
islet ATP content [3]: increased islet ATP content
